{
  "source": "ChEMBL document CHEMBL1137052",
  "about": "(Bioorg Med Chem Lett, 2004)",
  "key": {"[1]": {"assay": "Bioavailability in rat (dose 2 mg/kg p.o./i.v.)", "format": "ADME, organism-based", "conditions": "in vivo, po"}, "[2]": {"assay": "Area under plasma concentration-time curve in rat upon oral/iv administration at 2 mg/kg", "format": "ADME, organism-based", "parameters": "dose 2 mg/kg", "conditions": "in vivo"}, "[3]": {"tested_on": "Cavia porcellus", "assay": "Percent inhibition of histamine-induced bronchoconstriction in guinea pig after 3h of oral dose of 2 mg/kg"}, "[4]": {"assay": "Maximum plasma concentration in rat upon oral/iv administration at 2 mg/kg", "format": "ADME, organism-based", "parameters": "dose 2 mg/kg"}, "[5]": {"assay": "Plasma concentration of compound in guinea pig after 3h of oral dose of 2 mg/kg", "format": "ADME, organism-based, Cavia porcellus", "parameters": "dose 2 mg/kg, route oral"}, "[6]": {"assay": "Metabolic clearance in rat liver microsomes", "format": "ADME, Microsome", "conditions": "read-out: Clearance"}, "[7]": {"assay": "Metabolic clearance in guinea pig liver microsomes", "format": "ADME, Cavia porcellus, Microsome", "conditions": "read-out: Clearance"}, "[8]": {"tested_on": "Cavia porcellus", "assay": "Percent inhibition of calcium ionophore-induced LTB4 production in guinea pig after 3h of oral dose of 2 mg/kg"}, "[9]": {"target": "T1, Polyunsaturated fatty acid 5-lipoxygenase (Homo sapiens, UniProt P09917)", "T1 sequence (P09917 whole entry)": "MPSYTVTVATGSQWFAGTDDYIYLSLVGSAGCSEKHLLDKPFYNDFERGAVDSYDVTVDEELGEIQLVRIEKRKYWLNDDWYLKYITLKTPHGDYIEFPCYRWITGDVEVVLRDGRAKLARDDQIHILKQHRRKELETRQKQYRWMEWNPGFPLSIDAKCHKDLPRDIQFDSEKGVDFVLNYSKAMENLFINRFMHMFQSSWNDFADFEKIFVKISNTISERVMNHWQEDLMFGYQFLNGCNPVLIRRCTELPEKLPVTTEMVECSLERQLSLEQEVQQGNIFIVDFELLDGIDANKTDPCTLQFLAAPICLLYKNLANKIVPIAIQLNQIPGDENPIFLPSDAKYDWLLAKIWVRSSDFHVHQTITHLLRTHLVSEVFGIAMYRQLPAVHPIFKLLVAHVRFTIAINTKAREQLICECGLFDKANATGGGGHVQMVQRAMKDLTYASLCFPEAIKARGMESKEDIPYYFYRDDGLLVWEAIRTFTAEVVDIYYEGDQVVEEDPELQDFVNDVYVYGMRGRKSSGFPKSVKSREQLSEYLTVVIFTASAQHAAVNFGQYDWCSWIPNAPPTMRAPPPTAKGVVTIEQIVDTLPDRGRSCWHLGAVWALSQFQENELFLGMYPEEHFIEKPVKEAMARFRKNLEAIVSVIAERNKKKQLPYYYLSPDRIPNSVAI", "assay": "Inhibition of 5-lipoxygenase activity in human whole blood assay", "format": "tissue-based"}, "[10]": {"assay": "Metabolic clearance in human liver microsomes", "format": "ADME, Microsome", "conditions": "read-out: Clearance"}, "[11]": {"conditions": "read-out: Concentration, in vivo"}},
  "data": [
    {"smiles": "NC(=O)N(O)CCC#Cc1ccc(OCCN2CCC(=C3c4ccc(Cl)cc4CCc4cccnc43)CC2)cc1", "values": [
      {"measurement": "bioavailability", "setting": "[1]", "value": 8, "unit": "%"},
      {"measurement": "AUC", "setting": "[2]", "value": 83, "unit": "ng·h/mL"},
      {"measurement": "inhibition in vivo at 2 mg/kg", "setting": "[3]", "value": 65, "unit": "%"},
      {"measurement": "Cmax", "setting": "[4]", "value": 30, "unit": "ng/mL"},
      {"measurement": "concentration", "setting": "[5]; in vivo", "value": 72, "unit": "ng/mL"},
      {"measurement": "concentration", "setting": "[5]; [11]", "value": 129, "unit": "nM"},
      {"measurement": "microsomal CLint", "setting": "[6]", "value": 101, "unit": "µL/min/mg"},
      {"measurement": "microsomal CLint", "setting": "[7]", "value": 105, "unit": "µL/min/mg"},
      {"measurement": "inhibition in vivo at 2 mg/kg", "setting": "[8]", "value": 84, "unit": "%"},
      {"measurement": "IC50", "setting": "[9]", "value": 185, "unit": "nM"},
      {"measurement": "microsomal CLint", "setting": "[10]", "value": 15, "unit": "µL/min/mg"}
    ]},
    {"smiles": "NC(=O)N(O)CCC#Cc1ccc(OCCCCN2CCC(=C3c4ccc(Cl)cc4CCc4cccnc43)CC2)cc1", "values": [
      {"measurement": "IC50", "setting": "[9]", "value": 57, "unit": "nM"}
    ]},
    {"smiles": "NC(=O)N(O)CCC#Cc1ccc(OCCCCN2CCN(C(c3ccc(F)cc3)c3ccc(F)cc3)CC2)cc1", "values": [
      {"measurement": "microsomal CLint", "setting": "[6]", "value": 138, "unit": "µL/min/mg"},
      {"measurement": "microsomal CLint", "setting": "[7]", "value": 111, "unit": "µL/min/mg"},
      {"measurement": "IC50", "setting": "[9]", "value": 89, "unit": "nM"},
      {"measurement": "microsomal CLint", "setting": "[10]", "value": 13, "unit": "µL/min/mg"}
    ]},
    {"smiles": "NC(=O)N(O)CCC#Cc1ccc(OCCCN2CCN([C@H](c3ccccc3)c3ccc(Cl)cc3)CC2)cc1", "values": [
      {"measurement": "microsomal CLint", "setting": "[6]", "value": 108, "unit": "µL/min/mg"},
      {"measurement": "microsomal CLint", "setting": "[7]", "value": 99, "unit": "µL/min/mg"},
      {"measurement": "IC50", "setting": "[9]", "value": 96, "unit": "nM"}
    ]},
    {"smiles": "NC(=O)N(O)CCC#Cc1ccc(OCCN2CCN([C@H](c3ccccc3)c3ccc(Cl)cc3)CC2)cc1", "values": [
      {"measurement": "bioavailability", "setting": "[1]", "value": 23, "unit": "%"},
      {"measurement": "AUC", "setting": "[2]", "value": 300, "unit": "ng·h/mL"},
      {"measurement": "inhibition in vivo at 2 mg/kg", "setting": "[3]", "value": 62, "unit": "%"},
      {"measurement": "Cmax", "setting": "[4]", "value": 66, "unit": "ng/mL"},
      {"measurement": "concentration", "setting": "[5]; in vivo", "value": 187, "unit": "ng/mL"},
      {"measurement": "concentration", "setting": "[5]; [11]", "value": 350, "unit": "nM"},
      {"measurement": "microsomal CLint", "setting": "[6]", "value": 48, "unit": "µL/min/mg"},
      {"measurement": "microsomal CLint", "setting": "[7]", "value": 19, "unit": "µL/min/mg"},
      {"measurement": "inhibition in vivo at 2 mg/kg", "setting": "[8]", "value": 41, "unit": "%"},
      {"measurement": "IC50", "setting": "[9]", "value": 213, "unit": "nM"},
      {"measurement": "microsomal CLint", "setting": "[10]", "value": 2, "unit": "µL/min/mg"}
    ]},
    {"smiles": "NC(=O)N(O)CCC#Cc1ccc(OCCN2CCN(C(c3ccc(F)cc3)c3ccc(F)cc3)CC2)cc1", "values": [
      {"measurement": "IC50", "setting": "[9]", "value": 48, "unit": "nM"}
    ]},
    {"smiles": "NC(=O)N(O)CCC#Cc1ccc(OCCCN2CCC(=C3c4ccc(Cl)cc4CCc4cccnc43)CC2)cc1", "values": [
      {"measurement": "IC50", "setting": "[9]", "value": 194, "unit": "nM"}
    ]},
    {"smiles": "NC(=O)N(O)CCC#Cc1ccc(OCCCN2CCN(C(c3ccc(F)cc3)c3ccc(F)cc3)CC2)cc1", "values": [
      {"measurement": "IC50", "setting": "[9]", "value": 90, "unit": "nM"}
    ]},
    {"smiles": "NC(=O)N(O)CCC#Cc1ccc(OCCCCN2CCN([C@H](c3ccccc3)c3ccc(Cl)cc3)CC2)cc1", "values": [
      {"measurement": "IC50", "setting": "[9]", "value": 68, "unit": "nM"}
    ]}
  ]
}
